Data reported in US10342796B2, “Acrylanilide derivative, preparation method, and applications thereof in pharmacy” (Ancureall Pharmaceutical (Shanghai) Co., Ltd., priority 2015, dated 2019).

Legend:
Assay in all cases: Growth inhibition GI50 in vitro (CCK8/MTT, 72 h)
Format in all cases: cell-based, human
[1] = system: A549 (EGFR WT); conditions: Homo sapiens, A549; EGFR wild type cell line; range of GI50; read-out: GI50 A549
[2] = system: H1299 (EGFR wt, Nras Q61K); conditions: Homo sapiens, NCI-H1299; EGFR wild type cell line; range of GI50; read-out: GI50 H1299
[3] = system: H460 (EGFR wt, Kras G61H); conditions: Homo sapiens, NCI-H460; EGFR wild type cell line; range of GI50; read-out: GI50 H460
[4] = system: A431 (EGFR WT, amplification and high expression); conditions: Homo sapiens, A-431; EGFR wild type cell line; range of GI50; read-out: GI50 A431
[5] = system: AU565 (Her2 amp); conditions: Homo sapiens, AU565; HER2 positive cell line; range of GI50; read-out: GI50 AU-565
[6] = system: PC-9 (EGFR dE746-A750); conditions: Homo sapiens; EGFR mutant cell line; range of GI50; read-out: GI50 PC-9
[7] = system: PC-9ER (EGFR delE746-A750/T790M); conditions: Homo sapiens, PC-9/ER; EGFR mutant cell line; range of GI50; read-out: GI50 PC9ER
[8] = system: HCC827 (EGFR dE746-A750); conditions: Homo sapiens, HCC827; EGFR mutant cell line; range of GI50; read-out: GI50 HCC827
[9] = system: H1975 (EGFR L858R/T790M); conditions: Homo sapiens, NCI-H1975; EGFR mutant cell line; range of GI50; read-out: GI50 H1975
[10] = system: N87 (HER2 Amp); conditions: Homo sapiens; HER2 positive cell line; range of GI50; read-out: GI50 N87
[11] = system: SK-BR-3 (Her2 amp); conditions: Homo sapiens, SK-BR-3; HER2 positive cell line; range of GI50; read-out: GI50 SK-BR-3

Row | Structure (SMILES) | GI50 [1] [nM] | GI50 [2] [nM] | GI50 [3] [nM] | GI50 [4] [nM] | GI50 [5] [nM] | GI50 [6] [nM] | GI50 [7] [nM] | GI50 [8] [nM] | GI50 [9] [nM] | GI50 [10] [nM] | GI50 [11] [nM]
1 | C=CC(=O)Nc1cc(Nc2ncnc(Nc3cccc(C(F)(F)F)c3)n2)c(OC)cc1N(C)CCN(C)C [Compound 113, N-(5-(4-(3-trifluoromethyl-phenylamino)-[1,3,5]triazin-2-ylamino)-2-((2-dimethylamino-ethyl)-methyl-amino)-4-methoxyl-phenyl)-acrylamide] | > 1000 | > 1000 | > 1000 | 100 to 1000 | 10 to 100 | < 10 | < 10 | < 10 | 10 to 100 | 10 to 100 | 100 to 1000
2 | C=CC(=O)Nc1cc(Nc2cc(Nc3ccc(F)c(Cl)c3)ncn2)c(OC)cc1OCCN(C)C [Compound 148, N-(5-(6-(3-chloro-4-fluoro-phenylamino)-pyrimidin-4-ylamino)-2-(2-dimethylamino-ethoxyl)-4-methoxyl-phenyl)-acrylamide] | > 1000 | > 1000 | > 1000 | 10 to 100 | < 10 | < 10 | < 10 | < 10 | < 10 | 10 to 100 | < 10
3 | C=CC(=O)Nc1cc(Nc2cc(-c3cn(C)c4ccc(F)cc34)ncn2)c(OC)cc1N(C)CCN(C)C [Compound 188, N-(2-((2-dimethylamino-ethyl)-methylamino)-5-(6-(5-fluoro-1-methyl-1H-indol-3-yl)-pyrimidin-4-ylamino)-4-methoxyl-phenyl)-acrylamide] | > 1000 | > 1000 | > 1000 | 100 to 1000 | 10 to 100 | < 10 | < 10 | < 10 | 10 to 100 | 10 to 100 | < 10
4 | C=CC(=O)Nc1cc(Nc2nccc(-n3ccc4ccc(Br)cc43)n2)c(OC)cc1N(C)CCN(C)C [Compound 62, N-(5-(4-(6-bromo-1H-indol-1-yl)-pyrimidin-2-ylamino)-2-((2-(dimethylamino)ethyl)-methyl-amino)-4-methoxyl-phenyl)-acrylamide] | > 1000 | > 1000 | > 1000 | 100 to 1000 | 10 to 100 | 10 to 100 | 10 to 100 | < 10 | 10 to 100 | 10 to 100 | 10 to 100
5 | C=CC(=O)Nc1cc(Nc2nccc(-n3ccc4ccc(C#N)cc43)n2)c(OC)cc1N(C)CCN(C)C [Compound 60, N-{5-[4-(6-cyano-indol-1-yl)-pyrimidin-2-ylamino]-2-[(2-dimethylamino-ethyl)-methyl-amino]-4-methoxyl-phenyl}-acrylamidel] | > 1000 | > 1000 | > 1000 | > 1000 | 100 to 1000 | 100 to 1000 | 100 to 1000 | 100 to 1000 | 100 to 1000 | 100 to 1000 | 100 to 1000
6 | C=CC(=O)Nc1cc(Nc2cc(Nc3ccc(F)c(Cl)c3)ncn2)c(OC)cc1N1CCN(C)CC1 [Compound 145, N-(5-(6-(3-chloro-4-fluoro-phenylamino)-pyrimidin-4-ylamino)-4-methoxyl-2-(4-methyl-piperazin-1-yl)-phenyl)-acrylamide] | > 1000 | > 1000 | > 1000 | 10 to 100 | 10 to 100 | < 10 | < 10 | < 10 | 10 to 100 | < 10 | 10 to 100
7 | C=CC(=O)Nc1cc(Nc2cc(Nc3cc(F)cc(Br)c3)ncn2)c(OC)cc1N(C)CCN(C)C [Compound 139, N-(5-(6-(3-bromo-5-fluoro-phenylamino)-pyrimidin-4-ylamino)-2-((2-dimethylamino-ethyl)-methyl-amino)-4-methoxyl-phenyl)-acrylamide] | > 1000 | > 1000 | > 1000 | 100 to 1000 | < 10 | < 10 | < 10 | < 10 | 10 to 100 | < 10 | < 10
